Reference: patent publication US20040023907A1, “Infection model” (priority 2000, published 2004)
“Also recorded” adds a separate entry of the source.

Experiments:
[1] = system: candida albicans (virulent strain Sc5314, avirulent strain Can34); experiment: Influence of antimycotics on adhesion of candida albicans to in vitro skin and intestinal test systems (co-cultivation, colony count); type: cell-based; conditions: for influence on growth rates of the pathogen: co-cultivation with in vitro skin and intestinal test systems in presence of antimycotic; for influence on the adhesion of the pathogen: human in vitro skin and intestinal test systems, submerse culture, antimycotic 0.1, 0.5, 1.0, 2.0 μg/μl, colony count vs samples without antimycotic
From the text: In an especially preferred embodiment, the present invention relates to the co-cultivation of the human-pathological microorganism candida albicans with the human in vitro skin test system or the human in vitro intestinal test system in order to investigate the first stage of the infection process, i.e. the adhesion of the pathogen to the skin or intestinal cells. The adhesion of the pathogen is investigated using the virulent candida strain Sc5314 and the avirulent candida strain Can34 that have already been studied in a mouse macrophage model (Longitudinal et al., Cell, 90 (1997), 939-949). The in vitro skin test system or the in vitro intestinal test system is in each case inoculated in submerse culture with about 10^3 pathogenic organisms and cultivated with shaking. At defined times, for example every 30 minutes (up to a maximum of 4 hours), aliquot amounts are removed and plated out into Petri dishes with appropriate nutrient media, for example YPD full medium (Difco). After an appropriate incubation time, the number of colonies in the Petri dishes is determined. The adhesion of the pathogens on the in vitro organ test systems can be determined based on the comparison between the determined colony count and the originally inoculated number of pathogens.
In a preferred embodiment, the method for investigating the adhesion of candida on the in vitro intestinal test system according to the invention and on the in vitro skin test system according to the invention is modified in such a way that the co-cultivation preparation contains an antimycotic, in particular amphothericin B or fluconazole.
In order to determine the adhesion of the pathogen on cells, 12 each inserts of the human in vitro skin test system held in submerse culture or 12 each inserts of the in vitro intestinal test system held in submerse culture were infected each with 10^3 pathogenic organisms of the virulent candida strain Sc5314 or of the avirulent candida strain Can34 (Longitudinal et al., Cell 90 (1997), […]). The inserts were then incubated with shaking at 37° C. for 30, 60, 90, 120, 150, or 180 min.
At the specified times, the supernatant was removed and plated out in Petri dishes with YPD nutrient medium. After an incubation period of 2 days, the colonies in the Petri dishes were counted. Based on the comparison between the determined colony count and originally inoculated number of pathogens, it was determined that approximately 95% of the virulent strain and 10% of the avirulent strain adhered to the in vitro skin model after 2 hours.
In order to determine the influence of antimycotics on the adhesion of candida albicans on skin and intestinal cells, 12 inserts of the in vitro skin test system held in submerse culture and 12 inserts of the in vitro intestinal test system each were infected with 10^3 pathogenic organisms of the virulent candida strain Sc5314 or the avirulent candida strain Can34. Amphotericin B was added to 5 inserts in a concentration of 0.1, 0.5, 1.0, and 2.0 μg/μl, and fluconazole was added to 5 inserts in a concentration of 0.1, 0.5, 1.0, and 2.0 μg/μl. The inserts were then incubated with shaking at 37° C. for up to 3 days.
After 16, 24, 72, 86, and 98 hours, aliquot amounts were removed and plated out in Petri dishes with YPD nutrient media. After an incubation period of 2 days, the colonies in the Petri dishes were counted.

[2] = system: candida albicans (virulent strain Sc5314, avirulent strain Can34); experiment: Influence of antimycotics on penetration/invasion of candida albicans into in vitro skin and intestinal test systems (histology, PAS staining); type: cell-based; conditions: human in vitro skin and intestinal test systems, antimycotic 0.1, 0.5, 1.0, 2.0 μg/μl, histology after approximately 18 to 24 hours
From the text: In another particularly preferred embodiment, the present invention relates to the co-cultivation of the human-pathogenic microorganism candida albicans with the human in vitro skin test system prepared according to the invention or with the human in vitro intestinal test prepared according to the invention in order to investigate another stage of the infection process, i.e. the penetration/invasion of the pathogen into cells. For this, the organoid tissue test systems are co-cultivated using the airlift process with the previously described avirulent and virulent pathogen strains. The pathogen is preferably fixed with a cell count of 10^3/ml in 1% agar, and agar pieces with a diameter of 4 mm are placed onto the organoid tissue test systems for up to 98 hours. The penetration of the pathogen into the organoid structures was studied after 16 hours, 24 hours, 72 hours, 86 hours, and 98 hours using histological methods on thin sections, employing the PAS staining method (McManaus, Romeis, 17th ed., page 393). Using the histological sections, the invasion process of the virulent candida strain into the deeper layers of the connective-tissue-like matrix can be documented.
In another preferred embodiment, the method for investigating the penetration/invasion of candida with the in vitro intestinal test system and the in vitro skin test system was modified in such a way that the co-cultivation preparation contained amphothericin B or fluconazole.
In order to determine the penetration of the pathogen, 12 inserts of the in vitro skin system held in airlift culture and 12 inserts of the in vitro intestinal system held in airlift culture each were infected with 10^3 pathogenic organisms of the virulent candida strain Sc5314 or the avirulent candida strain Can34. The inserts then were incubated up to 3 days at 37° C.
The penetration of the pathogen into the organoid structures was investigated after about 18 to 24 hours using histological methods on thin sections, employing the PAS staining method both for the in vitro skin system as well as for the in vitro intestinal system. […]

Row | SMILES | influence on growth rates of the pathogen [1] | influence on the adhesion of the pathogen [1] | influence on the adhesion of the pathogen ([1]; listed as amphothericin B) | invasion (penetration) of the virulent candida strain into the organoid structures [2] | invasion (penetration) of the virulent candida strain into the organoid structures ([2]; listed as amphothericin B)
1 | C[C@@H]1[C@H](O)[C@@H](C)/C=C/C=C/C=C/C=C/C=C/C=C/C=C/[C@H](O[C@@H]2O[C@H](C)[C@@H](O)[C@H](N)[C@@H]2O)C[C@@H]2O[C@](O)(C[C@@H](O)C[C@@H](O)[C@H](O)CC[C@@H](O)C[C@@H](O)CC(=O)O[C@H]1C)C[C@H](O)[C@H]2C(=O)O [amphotericin B] | influenced its growth rates | adhesion of the virulent candida strain could only be prevented by adding amphotericin B and fluconazole and by an inhibition of growth | no influence on the adhesion of the pathogen | apparently prevents the invasion of the virulent candida strain by inhibiting its growth | could only be prevented with a complete inhibition of growth
2 | OC(Cn1cncn1)(Cn1cncn1)c1ccc(F)cc1F [fluconazole] | influenced its growth rates | no influence on the adhesion of the pathogen; also recorded: adhesion of the virulent candida strain could only be prevented by adding amphotericin B and fluconazole and by an inhibition of growth | – | could only be prevented with a complete inhibition of growth; also recorded: apparently prevents the invasion of the virulent candida strain by inhibiting its growth | –
